The values below come from patent US10913738B2 (BRISTOL-MYERS SQUIBB COMPANY, priority 2017, dated 2021).

pIC50: −log10 of the molar value.

In one assay the target is T1, His-GST-TVMV-hRIPK1(1-324) (Homo sapiens, UniProt Q13546).
T1 construct: The coding region of human RIPK1(1-324) flanked by NdeI site at 5′ end; made in house; host or cells: Spodoptera frugiperda (Sf9) insect cells, baculovirus
T1 sequence (Q13546 1-324): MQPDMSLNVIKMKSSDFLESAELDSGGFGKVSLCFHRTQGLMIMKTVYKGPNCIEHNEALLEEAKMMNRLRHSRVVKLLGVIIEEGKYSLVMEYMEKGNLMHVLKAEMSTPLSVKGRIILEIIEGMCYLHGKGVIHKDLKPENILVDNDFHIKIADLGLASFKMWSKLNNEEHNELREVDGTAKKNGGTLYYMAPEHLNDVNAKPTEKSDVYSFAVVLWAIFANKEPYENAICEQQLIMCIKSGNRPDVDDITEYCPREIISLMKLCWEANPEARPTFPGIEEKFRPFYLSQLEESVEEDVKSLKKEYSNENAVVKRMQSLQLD
The assay is described as follows: RIPK1 HTRF Binding Assay. The following applies: x marks IC50 class 20-200 nM; read-out: RIPK1 HTRF binding 20-200 nM. The method, then:
The plate was incubated at rt for 1 h.
Cloning and Baculovirus Expression of RIPK1 Construct
Baculovirus was generated for the construct using the Bac-to-Bac baculovirus expression system (Invitrogen) according to the manufacturer's protocol. Briefly, recombinant bacmid was isolated from transformed DH10Bac E. coli competent cells (Invitrogen) and used to transfect Spodoptera frugiperda (Sf9) insect cells (Invitrogen). Baculovirus was harvested 72 hours post transfection and a virus stock was prepared by infecting fresh Sf9 cells at a 1/1000 (v/v) ratio for 66 hours.
The production was carried out either at a 10 L scale in a 22 L cellbag (GE Healthcare Bioscience, Pittsburgh, Pa.) or at a 20 L scale in a 50 L cellbag using WAVE-Bioreactor System 20/50 (GE Healthcare Bioscience). The infected cells were harvested by centrifugation at 2000 rpm for 20 min at 4° C. in a SORVALL® RC12BP centrifuge. The cell pellets was stored at −70° C. before protein was purified.
RIPK1 containing cell paste was resuspended in 50 mM Tris pH 7.5, 150 mM NaCl, 10 mM imidazole, 5% glycerol, 5 mM MgSO4, 1 mM TCEP, 25 U/ml Benzonase, and Complete Protease Inhibitor tablets (1/50 ml, Roche Diagnostics, Indianapolis, Ind.). […] The suspension was clarified by centrifugation at 136,000×g for 40 min, at 4° C. The lysate was decanted from the pellet and passed through a 5 ml NiNTA Superflow cartridge (Qiagen, Valencia, Calif.) using an AKTA Pure (GE Healthcare). Column was eluted with 10 CV linear gradient into 50 mM Tris 7.5, 150 mM NaCl, 500 mM imidazole, 5% glycerol, 1 mM TCEP. Peak fractions were pooled and loaded directly onto 5 ml GSTrap 4B column (GE Healthcare). Column was washed with 50 mM Tris 7.0, 150 mM NaCl, 5% glycerol, 1 mM DTT and eluted in 10 CV linear gradient into 50 mM Tris 8.0, 150 mM NaCl, 20 mM reduced glutathione, 5% glycerol, 1 mM DTT. Fractions identified by SDS-PAGE as containing RIPK1 were pooled and concentrated using 30 kDa MWCO spin concentrators (Amicon Ultra-15, Millipore, Billerica, Mass.) and loaded onto a HiLoad 26/600 Superdex 200 column (GE Healthcare) equilibrated in 25 mM Tris 7.5, 150 mM NaCl, 2 mM TCEP, 5% glycerol.
Protein was aliquoted and stored at −80° C.
Turning to `COc1ncc(-c2ccn3nc(N)nc3c2)cc1C(=O)NCC[C@H](O)c1ccc(Cl)cc1` [Example 157, 5-{2-amino-[1,2,4]triazolo[1,5-a]pyridin-7-yl}-N-[(3S)-3-(4-chlorophenyl)-3-hydroxypropyl]-2-methoxypyridine-3-carboxamide], the pIC50 was 6.70 to 7.70.

As to `Cc1nc(C)c(-c2ccn3nc(N)nc3c2)cc1C(=O)NCC[C@@H](O)c1ccc(Cl)cc1` [Example 178, 5-{2-amino-[1,2,4]triazolo[1,5-a]pyridin-7-yl}-N-[(3R)-3-(4-chlorophenyl)-3-hydroxypropyl]-2,6-dimethylpyridine-3-carboxamide], the pIC50 was 6.70 to 7.70. `COc1nc(C)c(-c2ccn3nc(N)nc3c2)cc1C(=O)NCC[C@H](O)c1ccc(Cl)cc1` [Example 193, 5-{2-amino-[1,2,4]triazolo[1,5-a]pyridin-7-yl}-N-[(3S)-3-(4-chlorophenyl)-3-hydroxypropyl]-2-methoxy-6-methylpyridine-3-carboxamide]: the pIC50 is 6.70 to 7.70.

The same assay, now with this note: x marks IC50 class <20 nM; read-out: RIPK1 HTRF binding <20 nM.
Take “5-(2-amino-[1,2,4]triazolo[1,5-a]pyridin-7-yl)-2-methoxy-N-(2-(pyrrolidine-1-carbonyl)benzyl)nicotinamide [Example 379]”: the pIC50 was greater than 7.70. On the same count and under the same terms, the figure for “5-(2-amino-[1,2,4]triazolo[1,5-a]pyridin-7-yl)-N-(3,5-difluoro-2-isobutoxybenzyl)-2-methoxynicotinamide [Example 341]” is greater than 7.70. Same read-out and setting: next, `COc1ncc(-c2ccn3nc(N)nc3c2)cc1C(=O)NC(C)c1cc(OC(F)(F)F)ccc1F` (single isomer, unassigned) [Example 89-2, 5-{2-amino-[1,2,4]triazolo[1,5-a]pyridin-7-yl}-N-{1-[2-fluoro-5-(trifluoromethoxy)phenyl]ethyl}-2-methoxypyridine-3-carboxamide]: greater than 7.70. Same read-out and setting: the figure for `[2H]C([2H])([2H])Oc1nc(C)c(-c2ccn3nc(N)nc3c2)cc1C(=O)NC(C)c1cc(OC(F)(F)F)ccc1F` (single isomer, unassigned) [Example 97-2, 5-{2-amino-[1,2,4]triazolo[1,5-a]pyridin-7-yl}-N-{1-[2-fluoro-5-(trifluoromethoxy)phenyl]ethyl}-2-(deutero)methoxy-6-methylpyridine-3-carboxamide] is greater than 7.70. For the molecule `Cc1ncc(-c2ccn3nc(N)nc3c2)cc1C(=O)NC(C)c1cc(C(F)(F)F)ccc1F` (single isomer, unassigned) [Example 99-2, 5-{2-amino-[1,2,4]triazolo[1,5-a]pyridin-7-yl}-N-{1-[2-fluoro-5-(trifluoromethyl)phenyl]ethyl}-2-methylpyridine-3-carboxamide], the pIC50 was greater than 7.70. Consider `Cc1ncc(-c2ccn3nc(N)nc3c2)cc1C(=O)NCCC(C)c1ccccc1` (stereo not shown) [Example 82, 5-{2-Amino-[1,2,4]triazolo[1,5-a]pyridin-7-yl}-2-methyl-N-(3-phenylbutyl)pyridine-3-carboxamide], for which the pIC50 is greater than 7.70. On the same count and under the same terms, next, `Cc1nc(C)c(-c2ccn3nc(N)nc3c2)cc1C(=O)NCC[C@H](O)c1ccc(Cl)cc1` [Example 179, 5-{2-amino-[1,2,4]triazolo[1,5-a]pyridin-7-yl}-N-[(3S)-3-(4-chlorophenyl)-3-hydroxypropyl]-2,6-dimethylpyridine-3-carboxamide]: greater than 7.70. Still for that read-out and setting: next, “(R)-2-(2-amino-[1,2,4]triazolo[1,5-a]pyridin-7-yl)-N-(1-(2-fluoro-5-(trifluoromethyl)phenyl)ethyl)-5-methylisonicotinamide [Example 396]”: greater than 7.70; “(R)-5-(2-amino-[1,2,4]triazolo[1,5-a]pyridin-7-yl)-N-(1-(2-fluoro-5-(trifluoromethoxy)phenyl)ethyl-2,2,2-d3)-2-methoxynicotinamide [Example 345]”: greater than 7.70. In the case of “(S)-2-(2-amino-[1,2,4]triazolo[1,5-a]pyridin-7-yl)-N-(3-(4-chlorophenyl)-3-hydroxypropyl)-5-methylisonicotinamide [Example 397]”, the pIC50 is greater than 7.70.

Staying with this assay, now noted: x marks IC50 class >200 nM; read-out: RIPK1 HTRF binding >200 nM.
As to `COc1ncc(-c2ccn3nc(N)nc3c2)cc1C(=O)NCCC(O)c1ccc(Cl)cn1` (stereo not shown) [Example 75, 5-{2-Amino-[1,2,4]triazolo[1,5-a]pyridin-7-yl}-N-[3-(5-chloropyridin-2-yl)-3-hydroxypropyl]-2-methoxypyridine-3-carboxamide], the pIC50 is less than 6.70.

In the next assay the test system is MLKL phosphorylation in HT29-L23 human colorectal adenocarcinoma cells. The assay is described as follows: MLKL Phosphorylation High-Content Assay. It is filed as cell-based. The following applies: Homo sapiens, x marks IC50 class 20-200 nM, read-out: pMLKL cell activity 20-200 nM. The method, then:
MLKL Phosphorylation High-Content Assay
Following six hours incubation at 37° C. […] MLKL phosporylation was detected using anti-MLKL (phospho S358) antibody (Abcam #ab187091) (1:1000 dilution in Blocking Buffer [PBS supplemented with 0.1% BSA]) with overnight incubation at 4° C. […] Following another three cycles of washes in PBS, the microplates were sealed, and cellular images were acquired in the Cellomics ArrayScan VTI high-content imager equipped with an X1 camera. […] The image sets were analyzed using the Compartmental Analysis Bioapplication software (Cellomics). The level of MLKL phosphorylation was quantified as MEAN CircRingAvgIntenRatio. […] The data were fitted using the 4-parameter logistic equation to calculate the IC50 and Ymax values.
On to `COc1ncc(-c2ccn3nc(N)nc3c2)cc1C(=O)NC(C)CCc1ccccc1` (stereo not shown) [Example 101, 5-{2-amino-[1,2,4]triazolo[1,5-a]pyridin-7-yl}-2-methoxy-N-(4-phenylbutan-2-yl)pyridine-3-carboxamide], for which the pIC50 was 6.70 to 7.70. Consider `Nc1nc2cc(-c3cnc(Cl)c(C(=O)NCc4cc(C(F)(F)F)ccc4F)c3)ccn2n1` [Example 170, 5-{2-amino-[1,2,4]triazolo[1,5-a]pyridin-7-y1}-2-chloro-N-{[2-fluoro-5-(trifluoromethyl)phenyl]methyl}pyridine-3-carboxamide], for which the pIC50 was 6.70 to 7.70. Still for that read-out and setting: next, `Cc1nc(C)c(-c2ccn3nc(N)nc3c2)cc1C(=O)NCc1cc(F)cc(F)c1O[C@H]1CCOC1` [Example 295, (S)-5-(2-amino-[1,2,4]triazolo[1,5-a]pyridin-7-yl)-N-(3,5-difluoro-2-((tetrahydrofuran-3-yl)oxy)benzyl)-2,6-dimethylnicotinamide]: 6.70 to 7.70.

The assay is the same for the next values; noted with them: Homo sapiens, x marks IC50 class <20 nM, read-out: pMLKL cell activity <20 nM.
For `Nc1nc2cc(-c3cnc(Cl)c(C(=O)Nc4cnn(Cc5ccccc5)c4)c3)ccn2n1` [Example 83, 5-{2-Amino-[1,2,4]triazolo[1,5-a]pyridin-7-yl}-N-(1-benzyl-1H-pyrazol-4-yl)-2-chloropyridine-3-carboxamide], the pIC50 is greater than 7.70. The same measure, in the same setting: the figure for `COc1ncc(-c2ccn3nc(N)nc3c2)cc1C(=O)NCCC(C)c1ccccc1` (stereo not shown) [Example 85, 5-{2-Amino-[1,2,4]triazolo[1,5-a]pyridin-7-yl}-2-methoxy-N-(3-phenylbutyl)pyridine-3-carboxamide] is greater than 7.70; for `COc1ncc(-c2ccn3nc(N)nc3c2)cc1C(=O)NCC(C)Cc1ccccc1` (stereo not shown) [Example 113, 5-{2-amino-[1,2,4]triazolo[1,5-a]pyridin-7-yl}-2-methoxy-N-(2-methyl-3-phenylpropyl)pyridine-3-carboxamide] it is greater than 7.70.

The same assay, now with this note: Homo sapiens, x marks IC50 class >200 nM, read-out: pMLKL cell activity >200 nM.
On to `COc1ncc(-c2ccn3nc(N)nc3c2)cc1C(=O)NCCC(O)c1ccc(F)cc1` (single isomer, unassigned) [Example 71-2, 5-(2-Amino-[1,2,4]triazolo[1,5-a]pyridin-7-yl)-N-(3-(4-fluorophenyl)-3-hydroxypropyl)-2-methoxynicotinamide], for which the pIC50 was less than 6.70. Same read-out and setting: the figure for `COc1ncc(-c2ccn3nc(N)nc3c2)cc1C(=O)NC[C@H]1C[C@@H]1c1ccc(F)cc1` [Example 112, 5-{2-amino-[1,2,4]triazolo[1,5-a]pyridin-7-yl}-N-{[(1S,2S)-2-(4-fluorophenyl)cyclopropyl]methyl}-2-methoxypyridine-3-carboxamide] is less than 6.70.
